Test results reported in EP0153845A2, “CRF analogs” (THE SALK INSTITUTE FOR BIOLOGICAL STUDIES, priority 1984, dated 1985).

Legend:
[1] = molecular target: T1, cultured rat pituitary cells (Rattus norvegicus, UniProt P35353); experiment: Block of ACTH and β-endorphin secretion by cultured rat pituitary cells by CRF antagonists (procedure of Example XLIII); type: cell-based; conditions: for secretion of ACTH and β-END-LI (antagonist test): general procedure of Example XLIII
T1 sequence (P35353 24-415): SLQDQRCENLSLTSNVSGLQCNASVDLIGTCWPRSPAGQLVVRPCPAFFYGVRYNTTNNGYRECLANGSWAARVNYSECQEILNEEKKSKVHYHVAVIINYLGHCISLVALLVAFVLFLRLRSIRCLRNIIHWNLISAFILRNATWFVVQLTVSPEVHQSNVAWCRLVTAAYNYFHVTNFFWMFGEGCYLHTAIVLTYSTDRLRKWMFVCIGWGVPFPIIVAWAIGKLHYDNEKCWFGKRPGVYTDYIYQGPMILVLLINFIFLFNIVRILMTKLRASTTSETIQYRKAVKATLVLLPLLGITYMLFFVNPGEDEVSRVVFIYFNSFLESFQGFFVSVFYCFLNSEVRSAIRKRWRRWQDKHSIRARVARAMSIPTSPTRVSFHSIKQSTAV
Description: (§1) The effectiveness of synthetic CRF antagonists to block the secretion of ACTH and B-endorphin by cultured rat pituitary cells is measured using the procedure as generally set forth in Vale et al., Endocrinology, 91, 562 (1972). In vivo testing is carried out using the general procedure set forth in C. Rivier et al., Science, 218, 377 (1982).

[2] = system: GRF-stimulated secretion of GH; experiment: Specificity: effect on GRF-stimulated GH secretion; type: cell-based
[3] = system: GnRH-stimulated secretion of LH and FSH; experiment: Specificity: effect on GnRH-stimulated LH and FSH secretion; type: cell-based
[4] = system: TRF-stimulated secretion of TSH and prolactin; experiment: Specificity: effect on TRF-stimulated TSH and prolactin secretion; type: cell-based
spontaneous ACTH release = experiment: Spontaneous ACTH release by adrenalectomized rats; type: in vivo; conditions: iv injection of 3 mg/kg BW (2.7 nmole)
Description: as §1
The in vivo effect of CRF antagonists is tested on the spontaneous ACTH release by adrenalectomized rats.

[5] = system: CRF-induced ACTH secretion; experiment: CRF-induced ACTH secretion in intact, non-anesthetized rats; type: in vivo
[6] = system: ACTH rise due to ether-exposure; experiment: Ether-exposure (stressor) induced ACTH rise in intact rats; type: in vivo
[7] = Lowering of blood pressure, in vivo testing by the general procedure of Example III
[8] = system: ACTH and B-END-LI secretion; experiment: ACTH and β-END-LI secretion in vivo after intravenous hCRF in rats
Description: Plasma levels of ACTH and B-END-LI are elevated for at least 5-20 minutes following the intraveneous administration of hCRF to nembutal-anesthesized male rats and to quiescent male or female rats with indwelling intravenous cannulae.

In the case of “H-DLTFHLLREMLEMAKAEQEAEQAALNRLLLEEA-NH2 [AHC (9-41)]”, the “type of inhibition of oCRF-stimulated ACTH secretion” value ([1]; different concentrations of oCRF, several concentrations of antagonist against oCRF (1 nM)) is reported as “competitive inhibition”, the “effect on the GRF-stimulated secretion of GH” value [2] is reported as “no effect” and the “effect on the GnRH-stimulated secretion of LH and FSH” value [3] is reported as “no effect”. For the same compound, the “effect on the TRF-stimulated secretion of TSH and prolactin” value [4] was “no effect”, the “plasma ACTH levels (spontaneous ACTH release)” value (spontaneous ACTH release) was “marked decrease” and the “inhibition of CRF-induced ACTH secretion” value [5] was “dose-related inhibition”. For the same compound, the “ACTH rise due to ether-exposure” value [6] was “prevents most, but not all”.

In the case of “H-Asp-CML-Thr-Leu-Glu-CML-Leu-Arg-Glu-Met-CML-Glu-Met-Ala-Lys-Ala-Glu-Gln-CML-Ala-Glu-Gln-Ala-Ala-CML-Asn-Arg-Leu-CML-Leu-Glu-Glu-Ala-NH2 [[CML^10,14,19,27,33,38]-AHC(9-41)]”, the “lowering of blood pressure” value [7] is reported as “very significant lowering of blood pressure” and the “secretion of ACTH and β-END-LI (antagonist test)” value [1] is reported as “stimulates”.

With `CC[C@H](C)[C@H](NC(=O)[C@@H](NC(=O)[C@H](CCC(=O)O)NC(=O)[C@H](CCSC)NC(=O)[C@H](CC(C)C)NC(=O)[C@H](CCCCN)NC(=O)[C@H](CCCNC(=N)N)NC(=O)[C@H](CC(N)=O)NC(=O)[C@H](CO)NC(=O)[C@H](Cc1c[nH]cn1)NC(=O)[C@H](C)NC(=O)[C@H](CCC(N)=O)NC(=O)[C@H](CCC(N)=O)NC(=O)[C@H](C)NC(=O)[C@H](CC(C)C)NC(=O)[C@H](CCC(N)=O)NC(=O)[C@H](CCC(=O)O)NC(=O)[C@H](C)NC(=O)[C@H](CCCNC(=N)N)NC(=O)[C@H](C)NC(=O)[C@H](CCSC)NC(=O)[C@H](CCC(=O)O)NC(=O)[C@H](CC(C)C)NC(=O)[C@@H](NC(=O)[C@H](CCC(=O)O)NC(=O)[C@H](CCCNC(=N)N)NC(=O)[C@H](CC(C)C)NC(=O)[C@H](CC(C)C)NC(=O)[C@H](Cc1c[nH]cn1)NC(=O)[C@H](Cc1ccccc1)NC(=O)[C@@H](NC(=O)[C@H](CC(C)C)NC(=O)[C@H](CC(=O)O)NC(=O)[C@H](CC(C)C)NC(=O)[C@H](CO)NC(=O)[C@@H](NC(=O)[C@@H]1CCCN1C(=O)[C@@H]1CCCN1C(=O)[C@H](CCC(=O)O)NC(=O)[C@H](CCC(=O)O)NC(=O)[C@@H](N)CO)[C@@H](C)CC)[C@@H](C)O)C(C)C)[C@@H](C)CC)C(N)=O` [hCRF] the “time for which plasma levels of ACTH and B-END-LI are elevated” value ([8]; intravenous administration, nembutal-anesthetized male rats and quiescent male or female rats with indwelling intravenous cannulae) was 5 to 20 min and the “ACTH and B-END-LI secretion in vivo” value ([8]; several rat preparations) was “powerful stimulator”.

In the case of “H-Asp-CML-Thr-Leu-Glu-CML-CML-Arg-Glu-Met-CML-Glu-Met-CMA-Lys-Ala-Glu-Gln-CML-Ala-Glu-Gln-Ala-CMA-CML-Asn-Arg-Leu-CML-Leu-Glu-Glu-. CMA-NB2”, the “secretion of ACTH and β-END-LI (antagonist test)” value [1] is reported as “inhibits”.
